Data taken from ChEMBL document CHEMBL4616628, “Unexpected small molecules as novel SIRT2 suicide inhibitors” (Bioorg Med Chem, 2020).
The source made the active and inactive calls. No cut-off for these calls is given here.

How the values were obtained:
[1] = molecular target: NAD-dependent protein deacylase sirtuin-5, mitochondrial (Homo sapiens, UniProt Q9NXA8); test: Inhibition of SIRT5 desuccinylation activity (unknown origin) using H3K9Su (4 to 15 residues) as substrate by HPLC analysis
[2] = molecular target: T1, NAD-dependent protein deacetylase sirtuin-1 (Homo sapiens, UniProt Q96EB6); test: Inhibition of SIRT1 deacetylation activity (unknown origin) using H3K9Ac (4 to 15 residues) as substrate by HPLC analysis
T1 sequence (Q96EB6 whole entry): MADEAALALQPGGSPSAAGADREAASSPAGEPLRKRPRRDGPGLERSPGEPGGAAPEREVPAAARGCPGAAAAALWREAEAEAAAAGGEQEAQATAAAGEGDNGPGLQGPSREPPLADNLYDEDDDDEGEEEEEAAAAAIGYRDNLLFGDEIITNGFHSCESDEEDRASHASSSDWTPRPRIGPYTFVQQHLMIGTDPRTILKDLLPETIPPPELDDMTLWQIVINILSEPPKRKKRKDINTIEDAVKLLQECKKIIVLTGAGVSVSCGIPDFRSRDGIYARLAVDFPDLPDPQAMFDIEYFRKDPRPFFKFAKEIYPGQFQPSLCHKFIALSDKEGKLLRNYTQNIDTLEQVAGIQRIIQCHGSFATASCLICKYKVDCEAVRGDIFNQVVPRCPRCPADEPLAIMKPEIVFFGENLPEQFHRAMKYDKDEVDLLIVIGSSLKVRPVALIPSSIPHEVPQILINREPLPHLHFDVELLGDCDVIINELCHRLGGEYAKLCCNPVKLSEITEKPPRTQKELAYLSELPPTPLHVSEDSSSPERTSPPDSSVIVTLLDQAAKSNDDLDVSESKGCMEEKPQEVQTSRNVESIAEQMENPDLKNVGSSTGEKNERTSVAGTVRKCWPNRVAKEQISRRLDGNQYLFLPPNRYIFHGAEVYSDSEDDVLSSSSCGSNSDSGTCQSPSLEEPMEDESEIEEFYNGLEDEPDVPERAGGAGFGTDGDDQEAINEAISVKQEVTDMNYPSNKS

[3] = molecular target: T2, NAD-dependent protein deacetylase sirtuin-2 (Homo sapiens, UniProt Q8IXJ6); test: Inhibition of SIRT2 deacetylation activity (unknown origin) using H3K9Ac ( 4 to 15 residues) as substrate by HPLC analysis
T2 sequence (Q8IXJ6 whole entry): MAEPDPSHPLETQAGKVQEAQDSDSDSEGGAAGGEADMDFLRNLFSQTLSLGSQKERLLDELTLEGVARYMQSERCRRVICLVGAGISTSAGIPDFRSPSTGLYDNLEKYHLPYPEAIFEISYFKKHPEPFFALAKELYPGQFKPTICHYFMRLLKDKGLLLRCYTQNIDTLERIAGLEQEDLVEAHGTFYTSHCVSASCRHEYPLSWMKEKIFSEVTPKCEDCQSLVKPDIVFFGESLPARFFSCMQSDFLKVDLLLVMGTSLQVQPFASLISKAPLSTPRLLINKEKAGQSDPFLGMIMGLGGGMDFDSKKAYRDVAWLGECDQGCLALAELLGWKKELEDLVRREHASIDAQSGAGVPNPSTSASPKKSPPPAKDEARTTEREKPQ

[4] = molecular target: T3, NAD-dependent protein deacetylase sirtuin-3, mitochondrial (Homo sapiens, UniProt Q9NTG7); test: Inhibition of SIRT3 deacetylation activity (unknown origin) using H3K9Ac (4 to 15 residues) as substrate by HPLC analysis
T3 sequence (Q9NTG7 whole entry): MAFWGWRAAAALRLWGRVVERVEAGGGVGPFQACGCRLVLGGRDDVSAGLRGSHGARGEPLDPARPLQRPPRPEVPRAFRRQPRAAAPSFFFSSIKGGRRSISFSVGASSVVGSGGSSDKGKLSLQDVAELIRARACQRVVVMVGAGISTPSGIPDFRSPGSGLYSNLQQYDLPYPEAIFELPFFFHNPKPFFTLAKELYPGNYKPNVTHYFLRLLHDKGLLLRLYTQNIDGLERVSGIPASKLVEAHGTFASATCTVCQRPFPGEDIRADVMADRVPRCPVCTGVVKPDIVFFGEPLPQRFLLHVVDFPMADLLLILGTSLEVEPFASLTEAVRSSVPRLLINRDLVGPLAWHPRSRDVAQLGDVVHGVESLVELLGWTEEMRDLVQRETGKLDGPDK

[5] = molecular target: T2, NAD-dependent protein deacetylase sirtuin-2; test: Inhibition of SIRT2 deacetylation activity (unknown origin) using H4K8Ac (3 to 13 residues) as substrate by HPLC analysis
[6] = molecular target: T2, NAD-dependent protein deacetylase sirtuin-2; test: Inhibition of SIRT2 defatty-acylation activity (unknown origin) using H4K8-Myr (3 to 13 residues) as substrate by HPLC analysis
[7] = molecular target: T2, NAD-dependent protein deacetylase sirtuin-2; test: Inhibition of SIRT2 debenzoylation activity (unknown origin) using benzoylated histone H4K8 peptide (3 to 13 residues ) as substrate by HPLC analysis
Homo sapiens [8] = species on record: Homo sapiens; test: Selectivity ratio of IC50 for inhibition of SIRT1 deacetylation activity (unknown origin) to IC50 for inhibition of SIRT2 deacetylation activity (unknown origin)
Homo sapiens [9] = species on record: Homo sapiens; test: Selectivity ratio of IC50 for inhibition of SIRT3 deacetylation activity (unknown origin) to IC50 for inhibition of SIRT2 deacetylation activity (unknown origin)
Homo sapiens [10] = species on record: Homo sapiens; test: Selectivity ratio of IC50 for inhibition of SIRT5 desuccinylation activity (unknown origin) to IC50 for inhibition of SIRT2 deacetylation activity (unknown origin)
[11] = molecular target: T4, NAD-dependent protein deacetylase sirtuin-2 (Homo sapiens) (UniProt Q8IXJ6); test: Inhibition of SIRT2 deacetylation activity (unknown origin) assessed as increase in substrate apparent Km at 2 uM using H4K8Ac (3 to 13 residues) as substrate
T4 sequence (whole entry): T2 sequence (Q8IXJ6 whole entry)

[12] = molecular target: T4, NAD-dependent protein deacetylase sirtuin-2 (Homo sapiens); test: Irreversible inhibition of SIRT2 deacetylation activity (unknown origin) up to 40 uM using H4K8Ac (3 to 13 residues) as substrate

Sequence of NAD-dependent protein deacylase sirtuin-5, mitochondrial (Q9NXA8 whole entry, the tested form may be a part): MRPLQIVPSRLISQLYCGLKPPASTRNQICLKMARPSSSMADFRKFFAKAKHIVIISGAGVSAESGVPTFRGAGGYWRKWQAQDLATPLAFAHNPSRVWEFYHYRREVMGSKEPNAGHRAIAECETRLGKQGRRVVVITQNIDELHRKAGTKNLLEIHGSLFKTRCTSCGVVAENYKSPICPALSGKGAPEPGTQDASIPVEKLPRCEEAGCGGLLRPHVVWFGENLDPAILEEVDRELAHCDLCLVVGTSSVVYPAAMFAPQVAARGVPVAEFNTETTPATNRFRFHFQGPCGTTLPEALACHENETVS

Row | Compound | IC50 [1] | IC50 [2] | IC50 [3] | IC50 [4] | IC50 [5] | IC50 [6] | IC50 [7] | Ratio IC50 (Homo sapiens [8]) | Ratio IC50 (Homo sapiens [9]) | Ratio IC50 (Homo sapiens [10]) | inhibition [11] | inhibition [12]
1 | O=C(On1nnc2ncccc21)c1c[nH]c2ccc(Br)cc12 | > 200 µM | 40.3 µM | 77.1 µM |  |  |  |  |  |  |  |  | 
2 | O=C(On1nnc2ccccc21)c1cc[nH]c1 | > 200 µM | > 200 µM | 56.6 µM | > 200 µM |  |  |  |  |  |  |  | 

The next lines start with the values.

Row | IC50 [1] | IC50 [2] | IC50 [3] | IC50 [4] | IC50 [5] | IC50 [6] | IC50 [7] | Ratio IC50 (Homo sapiens [8]) | Ratio IC50 (Homo sapiens [9]) | Ratio IC50 (Homo sapiens [10]) | inhibition [11] | inhibition [12] | Compound
3 | > 200 µM | > 200 µM |  | > 200 µM |  |  |  |  |  |  |  |  | Cc1cc(C)nc(SCC(=O)Nc2ncc(Cc3cccc4ccccc34)s2)n1
4 | > 200 µM | > 200 µM | 14.3 µM | > 200 µM | 22.1 µM | 73.6 µM | 81 µM | 10 | 10 | 10 | Active | Active | O=C(On1nnc2ccccc21)c1c[nH]c2ccccc12
5 | > 200 µM | > 200 µM | 42.7 µM | > 200 µM |  |  |  |  |  |  |  |  | O=C(On1nnc2ccccc21)c1ccc[nH]1
6 | > 200 µM | 51.9 µM | 74 µM | 84.9 µM |  |  |  |  |  |  |  |  | Cc1ccc2[nH]cc(C(=O)On3nnc4ccccc43)c2c1
